Experimental data published in PubChem BioAssay (NCI).
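Grown in 96-well plates, cells were treated for 48 hours with each compound at five concentrations. Insufficient inhibition: endpoint recorded as highest concentration tested. The concentration for full growth arrest is given as TGI.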

How the values were obtained:
Assay in all cases: NCI tumour cell line growth inhibition, 48 h
MDA-MB-435 = tested on: MDA-MB-435
RXF 393 renal = tested on: RXF 393 renal
MALME-3M melanoma = tested on: MALME-3M melanoma
NCI-H23 lung = tested on: NCI-H23 lung
PC-3 prostate = tested on: PC-3 prostate
RPMI-8226 leukemia = tested on: RPMI-8226 leukemia
TK-10 renal = tested on: TK-10 renal
K-562 leukemia = tested on: K-562 leukemia
786-0 renal = tested on: 786-0 renal
SNB-75 CNS = tested on: SNB-75 CNS
IGROV1 ovarian = tested on: IGROV1 ovarian
A549 NSCLC = tested on: A549 NSCLC
UO-31 renal = tested on: UO-31 renal
HCT-15 colon = tested on: HCT-15 colon
SK-MEL-2 melanoma = tested on: SK-MEL-2 melanoma
MDA-MB-231 breast = tested on: MDA-MB-231 breast
COLO 205 colon = tested on: COLO 205 colon
A498 renal = tested on: A498 renal
LOX IMVI melanoma = tested on: LOX IMVI melanoma
ACHN renal = tested on: ACHN renal
OVCAR-4 ovarian = tested on: OVCAR-4 ovarian
UACC-62 melanoma = tested on: UACC-62 melanoma
HS 578T breast = tested on: HS 578T breast
SK-MEL-5 melanoma = tested on: SK-MEL-5 melanoma
BT-549 breast = tested on: BT-549 breast
T-47D breast = tested on: T-47D breast
M14 melanoma = tested on: M14 melanoma
CCRF-CEM leukemia = tested on: CCRF-CEM leukemia
HCT-116 colon = tested on: HCT-116 colon
DU-145 prostate = tested on: DU-145 prostate
KM12 colon = tested on: KM12 colon
MCF7 breast = tested on: MCF7 breast
SN12C renal = tested on: SN12C renal
SR leukemia = tested on: SR leukemia
SF-539 CNS = tested on: SF-539 CNS
SNB-19 CNS = tested on: SNB-19 CNS
NCI/ADR-RES ovarian = tested on: NCI/ADR-RES ovarian
SW-620 colon = tested on: SW-620 colon
NCI-H226 lung = tested on: NCI-H226 lung
HT29 colon = tested on: HT29 colon
OVCAR-8 ovarian = tested on: OVCAR-8 ovarian
MDA-N = tested on: MDA-N
EKVX NSCLC = tested on: EKVX NSCLC
U251 CNS = tested on: U251 CNS
OVCAR-5 ovarian = tested on: OVCAR-5 ovarian
HL-60(TB) leukemia = tested on: HL-60(TB) leukemia
MOLT-4 leukemia = tested on: MOLT-4 leukemia
UACC-257 melanoma = tested on: UACC-257 melanoma
CAKI-1 renal = tested on: CAKI-1 renal
NCI-H522 lung = tested on: NCI-H522 lung
NCI-H460 lung = tested on: NCI-H460 lung
HOP-92 NSCLC = tested on: HOP-92 NSCLC
HCC-2998 colon = tested on: HCC-2998 colon
SK-MEL-28 melanoma = tested on: SK-MEL-28 melanoma
OVCAR-3 ovarian = tested on: OVCAR-3 ovarian
SF-295 CNS = tested on: SF-295 CNS
SK-OV-3 ovarian = tested on: SK-OV-3 ovarian
SF-268 CNS = tested on: SF-268 CNS
HOP-62 NSCLC = tested on: HOP-62 NSCLC

Work on `O=C1CSC2(CC(/C=C/c3ccccc3)=NN2c2cccc(S(=O)(=O)O)c2)N1c1nc2ccccc2s1` (stereo not given) yielded a TGI (MDA-MB-435) of 37.2 µM, a TGI (RXF 393 renal) of 51.7 µM and a TGI (MALME-3M melanoma) greater than 100 µM. For the same compound, the TGI (NCI-H23 lung) was 56.7 µM, the TGI (PC-3 prostate) was 59.3 µM and the TGI (RPMI-8226 leukemia) was 53.7 µM. It also gave a TGI (TK-10 renal) of 46.9 µM, a TGI (K-562 leukemia) greater than 100 µM and a TGI (786-0 renal) of 33 µM. For the same compound, the TGI (SNB-75 CNS) was 59.2 µM, the TGI (IGROV1 ovarian) was 56.6 µM and the TGI (A549 NSCLC) was greater than 100 µM. For the same compound, the TGI (UO-31 renal) was 35.7 µM, the TGI (HCT-15 colon) was greater than 100 µM and the TGI (SK-MEL-2 melanoma) was 49.5 µM. The TGI (MDA-MB-231 breast) was 47.8 µM, the TGI (COLO 205 colon) was greater than 100 µM and the TGI (A498 renal) was 64.3 µM. It also gave a TGI (LOX IMVI melanoma) of 23.7 µM, a TGI (ACHN renal) greater than 100 µM and a TGI (OVCAR-4 ovarian) of 54.1 µM. The TGI (UACC-62 melanoma) was 45.2 µM, the TGI (HS 578T breast) was greater than 100 µM and the TGI (SK-MEL-5 melanoma) was greater than 100 µM. It also gave a TGI (BT-549 breast) of 52.8 µM, a TGI (T-47D breast) of 52.5 µM and a TGI (M14 melanoma) greater than 100 µM. It also gave a TGI (CCRF-CEM leukemia) of 49.5 µM, a TGI (HCT-116 colon) greater than 100 µM and a TGI (DU-145 prostate) of 54.4 µM. For the same compound, the TGI (KM12 colon) was 38.3 µM, the TGI (MCF7 breast) was 45 µM and the TGI (SN12C renal) was 71.2 µM. For the same compound, the TGI (SR leukemia) was 61 µM, the TGI (SF-539 CNS) was greater than 100 µM and the TGI (SNB-19 CNS) was 51.7 µM. It also gave a TGI (NCI/ADR-RES ovarian) greater than 100 µM, a TGI (SW-620 colon) greater than 100 µM and a TGI (NCI-H226 lung) greater than 100 µM. The TGI (HT29 colon) was greater than 100 µM, the TGI (OVCAR-8 ovarian) was 35.8 µM and the TGI (MDA-N) was greater than 100 µM. For the same compound, the TGI (EKVX NSCLC) was greater than 100 µM, the TGI (U251 CNS) was 42.1 µM and the TGI (OVCAR-5 ovarian) was 56.5 µM. The TGI (HL-60(TB) leukemia) was 94.6 µM, the TGI (MOLT-4 leukemia) was 91.5 µM and the TGI (UACC-257 melanoma) was greater than 100 µM. For the same compound, the TGI (CAKI-1 renal) was greater than 100 µM, the TGI (NCI-H522 lung) was 37 µM and the TGI (NCI-H460 lung) was greater than 100 µM. It also gave a TGI (HOP-92 NSCLC) of 77.3 µM, a TGI (HCC-2998 colon) greater than 100 µM and a TGI (SK-MEL-28 melanoma) greater than 100 µM.
`O=C1C(N2CCCC2)=CC(=O)c2c(O)c(N3CCCC3)c(Cl)c(O)c21` showed a TGI (MDA-MB-435) greater than 10 µM, a TGI (RXF 393 renal) greater than 10 µM and a TGI (MALME-3M melanoma) greater than 10 µM. For the same compound, the TGI (NCI-H23 lung) was greater than 10 µM, the TGI (PC-3 prostate) was greater than 10 µM and the TGI (RPMI-8226 leukemia) was greater than 10 µM. It also gave a TGI (TK-10 renal) greater than 10 µM, a TGI (K-562 leukemia) greater than 10 µM and a TGI (OVCAR-3 ovarian) greater than 10 µM. It also gave a TGI (786-0 renal) greater than 10 µM, a TGI (SNB-75 CNS) greater than 10 µM and a TGI (IGROV1 ovarian) greater than 10 µM. It also gave a TGI (A549 NSCLC) greater than 10 µM, a TGI (SF-295 CNS) greater than 10 µM and a TGI (UO-31 renal) greater than 10 µM. The TGI (SK-MEL-2 melanoma) was greater than 10 µM, the TGI (MDA-MB-231 breast) was greater than 10 µM and the TGI (COLO 205 colon) was greater than 10 µM. The TGI (SK-OV-3 ovarian) was greater than 10 µM, the TGI (A498 renal) was greater than 10 µM and the TGI (LOX IMVI melanoma) was greater than 10 µM. It also gave a TGI (ACHN renal) greater than 10 µM, a TGI (OVCAR-4 ovarian) greater than 10 µM and a TGI (UACC-62 melanoma) greater than 10 µM. For the same compound, the TGI (HS 578T breast) was greater than 10 µM, the TGI (SK-MEL-5 melanoma) was greater than 10 µM and the TGI (BT-549 breast) was greater than 10 µM. The TGI (T-47D breast) was greater than 10 µM, the TGI (M14 melanoma) was greater than 10 µM and the TGI (CCRF-CEM leukemia) was greater than 10 µM. The TGI (HCT-116 colon) was greater than 10 µM, the TGI (DU-145 prostate) was greater than 10 µM and the TGI (KM12 colon) was greater than 10 µM. For the same compound, the TGI (MCF7 breast) was greater than 10 µM, the TGI (SN12C renal) was greater than 10 µM and the TGI (SR leukemia) was greater than 10 µM. It also gave a TGI (SF-539 CNS) greater than 10 µM, a TGI (SNB-19 CNS) greater than 10 µM and a TGI (NCI/ADR-RES ovarian) greater than 10 µM. For the same compound, the TGI (SW-620 colon) was greater than 10 µM, the TGI (SF-268 CNS) was greater than 10 µM and the TGI (NCI-H226 lung) was greater than 10 µM. For the same compound, the TGI (HT29 colon) was greater than 10 µM, the TGI (MDA-N) was greater than 10 µM and the TGI (EKVX NSCLC) was greater than 10 µM. It also gave a TGI (U251 CNS) greater than 10 µM, a TGI (HL-60(TB) leukemia) greater than 10 µM and a TGI (MOLT-4 leukemia) greater than 10 µM. It also gave a TGI (UACC-257 melanoma) greater than 10 µM, a TGI (CAKI-1 renal) greater than 10 µM and a TGI (NCI-H522 lung) greater than 10 µM. The TGI (NCI-H460 lung) was greater than 10 µM, the TGI (HOP-92 NSCLC) was greater than 10 µM and the TGI (HOP-62 NSCLC) was greater than 10 µM. It also gave a TGI (HCC-2998 colon) greater than 10 µM and a TGI (SK-MEL-28 melanoma) greater than 10 µM.
